Laboratory results from PMC8558150 (Acta Pharmaceutica Sinica. B, 2021).
Read-outs that look alike come from different tables or passages of the source. Peptide text beside a SMILES is read from it.

Assays:
SARS CoV-2 M^pro [1] = biological target: T1, SARS CoV-2 M^pro (Severe acute respiratory syndrome coronavirus 2, UniProt P0DTD1); assay type: cell-based
SARS CoV-2 M^pro [2] = biological target: T1, SARS CoV-2 M^pro; assay type: biochemical
SARS CoV-2 M^pro [3] = biological target: T1, SARS CoV-2 M^pro; conditions: cited from earlier work
[4] = system: SARS-CoV-2 (isolate USA-WA1/2020); experiment: Antiviral immunofluorescence assay in Calu-3 cells; assay type: cell-based; conditions: read-out: Antiviral EC50 in Calu-3 cells
cathepsin L = conditions: read-out: cathepsin L IC50; cited from earlier work
SARS-CoV-2 = conditions: read-out: EC50, secondary viral yield reduction assay; Vero E6 cells; cited from earlier work
SARS-CoV-2 M^pro = conditions: cited from earlier work; for IC50: read-out: FRET IC50
SARS-CoV M^pro = conditions: read-out: SARS-CoV M^pro IC50; cited from earlier work
SARS CoV-2 M^pro [5] = biological target: T1, SARS CoV-2 M^pro; experiment: Thermal shift assay; assay type: binding

## CC(C)=CC[C@@H](O)C1=CC(=O)c2c(O)ccc(O)c2C1=O [shikonin]
SARS CoV-2 M^pro [1]
  result in FlipGFP assay (in words): no inhibition
SARS CoV-2 M^pro [2]
  result in Protease-Glo luciferase assay (in words): no inhibition
SARS CoV-2 M^pro [3]
  M^pro inhibition in FRET assay in the presence of DTT or GSH (in words): no inhibition

## CCCCCCNC(=O)n1cc(F)c(=O)[nH]c1=O [carmofur]
SARS CoV-2 M^pro [1]
  result in FlipGFP assay (in words): no inhibitory activity
SARS CoV-2 M^pro [2]
  result in Protease-Glo luciferase assay (in words): no inhibitory activity

## CSCC[C@@H](C=O)NC(=O)[C@H](CC(C)C)NC(=O)[C@H](CC(C)C)NC(C)=O [calpain inhibitor II] (Ac-Leu-Leu-Met-aldehyde)
[4]
  EC50: 30300 nM
Cathepsin L
  IC50: 0.41 nM

## O=c1cc(-c2ccccc2)oc2cc(O)c(O)c(O)c12 [baicalein]
SARS CoV-2 M^pro [1]
  result in FlipGFP assay (in words): no inhibition
SARS CoV-2 M^pro [2]
  result in Protease-Glo luciferase assay (in words): no inhibition

## CCC(C)SSc1ncc[nH]1 (centres unmarked) [PX-12]
SARS CoV-2 M^pro [1]
  result in FlipGFP assay (in words): no inhibitory activity
SARS CoV-2 M^pro [2]
  result in Protease-Glo luciferase assay (in words): no inhibitory activity

## Cc1c(O)cccc1C(=O)N[C@@H](CSc1ccccc1)[C@H](O)CN1C[C@H]2CCCC[C@H]2C[C@H]1C(=O)NC(C)(C)C [nelfinavir]
SARS CoV-2 M^pro [1]
  result in FlipGFP assay (in words): not conclusive

## CC(C)(C)NC(=O)N[C@H](C(=O)N1C[C@H]2[C@@H]([C@H]1C(=O)NC(CC1CCC1)C(=O)C(N)=O)C2(C)C)C(C)(C)C (some centres unmarked) [boceprevir]
SARS-CoV-2
  EC50: 1950 nM

## CCN(CC)CCCC(C)Nc1ccnc2cc(Cl)ccc12 (centres unmarked) [chloroquine]
SARS-CoV-2 M^pro
  Ki: 560 ± 120 nM

## O=c1sn(-c2cccc3ccccc23)c(=O)n1Cc1ccccc1 [tideglusib]
SARS CoV-2 M^pro [1]
  result in FlipGFP assay (in words): no inhibitory activity
SARS CoV-2 M^pro [2]
  result in Protease-Glo luciferase assay (in words): no inhibitory activity

## CC(C)c1nc(CN(C)C(=O)N[C@H](C(=O)N[C@@H](Cc2ccccc2)C[C@H](O)[C@H](Cc2ccccc2)NC(=O)OCc2cncs2)C(C)C)cs1 [ritonavir]
SARS CoV-2 M^pro [1]
  result in FlipGFP assay (in words): not active
SARS CoV-2 M^pro [2]
  result in Protease-Glo luciferase assay (in words): not active

## CCOc1nc2cccc(C(=O)O)c2n1Cc1ccc(-c2ccccc2-c2nnn[nH]2)cc1 [candesartan]
SARS-CoV-2 M^pro
  Ki: 180 ± 20 nM
  IC50: 2800 ± 300 nM

## O=c1c2ccccc2[se]n1-c1ccccc1 [ebselen]
SARS CoV-2 M^pro [1]
  result in FlipGFP assay (in words): no inhibition
SARS CoV-2 M^pro [2]
  result in Protease-Glo luciferase assay (in words): no inhibition
SARS CoV-2 M^pro [3]
  M^pro inhibition in FRET assay in the presence of DTT or GSH (in words): completely lost the M^pro inhibition

## CCN(CC)C(=S)SSC(=S)N(CC)CC [disulfiram]
SARS CoV-2 M^pro [1]
  result in FlipGFP assay (in words): no inhibition
SARS CoV-2 M^pro [2]
  result in Protease-Glo luciferase assay (in words): no inhibition

## CCC[C@H](NC(=O)[C@@H]1[C@H]2CCC[C@H]2CN1C(=O)[C@@H](NC(=O)[C@@H](NC(=O)c1cnccn1)C1CCCCC1)C(C)(C)C)C(=O)C(=O)NC1CC1 [telaprevir]
SARS CoV-2 M^pro [3]; at 20 μmol/L
  inhibition in FRET assay: 31%

## CCCC(NC(=O)C(CC(C)C)NC(=O)OCc1ccccc1)C(=O)C(=O)NCc1ccccn1 (centres unmarked) [calpain inhibitor XII]
[4]
  EC50: 14800 nM
Cathepsin L
  IC50: 1.62 nM

## CN(C)[C@@H]1C(O)=C(C(N)=O)C(=O)[C@@]2(O)C(O)=C3C(=O)c4c(O)cccc4[C@@](C)(O)[C@H]3[C@H](O)[C@@H]12 [oxytetracycline]
SARS-CoV-2 M^pro
  Ki: 990 ± 60 nM

## CC(C)c1nc(CN(C)C(=O)N[C@@H](CCN2CCOCC2)C(=O)N[C@H](CC[C@H](Cc2ccccc2)NC(=O)OCc2cncs2)Cc2ccccc2)cs1 [cobicistat]
SARS CoV-2 M^pro [1]
  result in FlipGFP assay (in words): not conclusive

## Cc1cccc(C)c1OCC(=O)N[C@@H](Cc1ccccc1)[C@@H](O)C[C@H](Cc1ccccc1)NC(=O)[C@H](C(C)C)N1CCCNC1=O [lopinavir]
SARS CoV-2 M^pro [1]
  result in FlipGFP assay (in words): not conclusive
SARS CoV-2 M^pro [2]
  result in Protease-Glo luciferase assay (in words): not active
SARS-CoV M^pro
  IC50: 50000 nM

## COC(=O)N[C@H](C(=O)N[C@@H](Cc1ccccc1)[C@@H](O)CN(Cc1ccc(-c2ccccn2)cc1)NC(=O)[C@@H](NC(=O)OC)C(C)(C)C)C(C)(C)C [atazanavir]
SARS CoV-2 M^pro [1]
  result in FlipGFP assay (in words): not conclusive

## COC(=O)C1=C(C)NC(C)=C(C(=O)OCCN2CCN(C(c3ccccc3)c3ccccc3)CC2)C1c1cccc([N+](=O)[O-])c1 (centres unmarked) [manidipine]
SARS CoV-2 M^pro [5]
  binding to M^pro in thermal shift assay (in words): did not show binding
SARS CoV-2 M^pro [1]
  result in FlipGFP assay (in words): no activity
SARS CoV-2 M^pro [2]
  result in Protease-Glo luciferase assay (in words): no activity
SARS-CoV-2 M^pro; in the presence of 0.05% Tween-20
  IC50: > 100000 nM
